This is an account of results in PubChem BioAssay (NCI).

Holding throughout (assay): NCI-60 cell line screen, 48 h
In experiment [1] the test system is A549 NSCLC.
In experiment [2] the test system is ACHN renal.
Experiment [3] deals with BT-549 breast.
The test system of experiment [4] is COLO 205 colon.
Experiment [5] concerns EKVX NSCLC.
Experiment [6] has as its system HCT-116 colon.
Experiment [7] deals with HOP-62 NSCLC.
In experiment [8] the test system is MALME-3M melanoma.
For experiment [9], the system named is MDA-MB-231 breast.
Experiment [10] has as its system SK-MEL-2 melanoma.
Experiment [11] concerns SK-MEL-5 melanoma.
For experiment [12], the system named is SN12C renal.
The test system of experiment [13] is TK-10 renal.
In experiment [14] the test system is HOP-92 NSCLC.
The test system of experiment [15] is MDA-N.
The subject of experiment [16] is RPMI-8226 leukemia.
For experiment [17], the system named is SF-268 CNS.
Experiment [18] deals with SK-MEL-28 melanoma.

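96-well plates; 48 h exposure; 5 concentrations. Endpoints by linear interpolation between flanking doses. Not reached: highest tested concentration assigned. TGI denotes the concentration required for complete inhibition of growth.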 Bounds are passed on as bounds.

In the case of `COC(=O)n1c(C)c(C=O)c2ccc(OC)cc21`, the TGI in experiment [1] was above 100 µM; in experiment [2], above 100 µM; in experiment [3] it was 73.2 µM; in [4] it was above 100 µM; in experiment [5] it was above 100 µM; in experiment [6], above 100 µM. For the same compound, the TGI in experiment [7] is 60.8 µM; in experiment [8], above 100 µM; in [9] it was above 100 µM; in experiment [10] it was above 100 µM; in experiment [11], 57.5 µM; in experiment [12] it was above 100 µM. Further, in experiment [13], the TGI is 67.6 µM.
Regarding `CCOC(=O)[C@@H]1ON2O[C@H](OC3CCCCC3c3ccccc3)C[C@H]3OC(=O)[C@@H]1C32` (stereo not given in full), the TGI in experiment [1], in experiment [2], in experiment [4], in experiment [5], in experiment [6] and in experiment [7] was above 100 µM throughout. Moreover, the TGI in experiment [14], in experiment [9], in experiment [15], in experiment [16], in experiment [17] and in experiment [11] was above 100 µM in each case. Also, the TGI in [12] and in experiment [13] was above 100 µM in each case.
As for `COc1cc(C(C[N+](=O)[O-])SC(C)=O)ccc1OCc1ccccc1` (stereo not given), the TGI in [1] was found to be 25.4 µM; in experiment [2] it was 24.7 µM; in experiment [4], 13 µM; in experiment [5], 37.9 µM; in experiment [6], 8.26 µM; in [7] it was 14.3 µM. Besides, the TGI in [14] was 36.2 µM; in experiment [8], 17.5 µM; in experiment [9], 13.3 µM; in [15], 8.54 µM; in experiment [16], 4.61 µM; in [17], above 100 µM. Further, the TGI in experiment [10] is 23.4 µM; in experiment [18], 6.79 µM; in [11], 21.9 µM; in [12], 15.7 µM; in experiment [13] it was 14.7 µM.
With `CCOC(=O)N(C)C(=C(F)F)C(F)(F)F`, the TGI in [1] was above 100 µM; in [4], 44 µM; in experiment [5] it was 89.2 µM; in experiment [6], 55.2 µM; in experiment [7] it was 68.9 µM; in experiment [14] it was 65.2 µM. Besides, the TGI in [8] was found to be 33.5 µM; in experiment [9], 84.2 µM; in experiment [15] it was 40.2 µM; in [16], 49 µM; in experiment [17] it was 97.4 µM; in [10], 44.5 µM. Besides, the TGI in experiment [18] was above 100 µM; in experiment [11], 30 µM; in experiment [13], 97.8 µM.
As to `CCN(CC)CCCNc1ccc([N+](=O)[O-])c2nc3ccc(OC)cc3c(N)c12`, the TGI in experiment [1] was 3.61 µM; in [2] it was above 10 µM; in experiment [3], 2.9 µM; in experiment [4] it was 2.67 µM; in experiment [5], above 10 µM; in [6], 2.49 µM. Further, the TGI in experiment [7] was above 10 µM; in experiment [14], above 10 µM; in [8], above 10 µM; in experiment [9] it was 3.29 µM; in experiment [16] it was 4.81 µM; in experiment [17], 3.57 µM. The TGI was above 10 µM in [10]; above 10 µM in experiment [18]; above 10 µM in experiment [11]; 3.64 µM in [12]; above 10 µM in experiment [13].
As for `NC(=O)c1nnsc1NN=O`, the TGI in experiment [1], in experiment [2], in [4], in experiment [5], in experiment [6] and in experiment [7] was above 100 µM in each case. The TGI in [8], in experiment [9], in experiment [15], in experiment [16], in [17] and in experiment [10] was above 100 µM in each case. For the same compound, the TGI in experiment [18], in [11] and in experiment [12] was above 100 µM each time.
As to `Oc1cnc2c(O)cccc2c1`, the TGI is above 100 µM in experiment [1]; 92.9 µM in [2]; 57.2 µM in experiment [5]; above 100 µM in experiment [6]; above 100 µM in [7]; above 100 µM in experiment [14]. The TGI in experiment [8], in experiment [9], in experiment [15], in experiment [16], in [17] and in experiment [10] was above 100 µM throughout. Further, the TGI in experiment [18], in experiment [12] and in experiment [13] was above 100 µM in each case.
As for `CC1(C)S[C@H](CN)N[C@H]1C(=O)OC(c1ccccc1)c1ccccc1`, the TGI was above 100 µM in experiment [1]; above 100 µM in experiment [2]; 92.2 µM in experiment [3]; 33.8 µM in experiment [4]; above 100 µM in [5]; above 100 µM in experiment [6]. The TGI was above 100 µM in experiment [7]; 91.6 µM in experiment [14]; 83.8 µM in experiment [8]; above 100 µM in [9]; 54.2 µM in experiment [16]; above 100 µM in experiment [17]. The TGI in experiment [10] was 93.3 µM; in experiment [18], above 100 µM; in [11], 31.4 µM; in [12], above 100 µM; in [13] it was above 100 µM.
As for `C=C1C(=O)O[C@H]2C/C(C)=C/CC[C@]3(C)CCC[C@](C)(CC[C@@H]12)O3`, the TGI was above 50 µM in [1]; 17.2 µM in [2]; 14.8 µM in [4]; 22.7 µM in experiment [5]; 20.1 µM in [6]; above 50 µM in [7]. Moreover, the TGI was 15.2 µM in [14]; 46.2 µM in experiment [9]; above 50 µM in experiment [15]; 20 µM in experiment [16]; 16.3 µM in experiment [17]; 17.9 µM in [10]. In addition, the TGI in [18] came out at 15.8 µM; in experiment [11], 13.8 µM; in experiment [12], 34.2 µM; in experiment [13], 18.4 µM.
On to `CSC1=C(C(=O)Nc2ccc(C)cc2)C(N)=NC1=O`, for which the TGI in [2], in [4], in experiment [5], in experiment [6], in [14] and in [9] was above 100 µM each time. The TGI in [16], in experiment [17], in [18], in experiment [11] and in experiment [13] was above 100 µM throughout.
With `O=C(Cn1c(=O)oc2ccc(C(=O)c3ccc(F)cc3)cc21)c1ccccc1`, the TGI in [1], in experiment [2], in experiment [4], in [6], in experiment [7] and in experiment [14] was above 100 µM each time. Moreover, the TGI in experiment [8], in experiment [9], in experiment [15], in [16], in experiment [17] and in experiment [10] was above 100 µM in each case. Moreover, the TGI in experiment [18], in [11], in experiment [12] and in [13] was above 100 µM throughout.
For `C/C(=N\NC(=S)NC(CCC(=O)O)C(=O)O)c1cnccn1` (stereo not given), the TGI in experiment [1], in experiment [2], in experiment [4], in experiment [5], in [6] and in experiment [7] was above 100 µM each time. The TGI in experiment [14], in experiment [8], in [16], in experiment [17], in experiment [10] and in experiment [18] was above 100 µM throughout. Moreover, the TGI in experiment [11], in [12] and in experiment [13] was above 100 µM throughout.
For the compound `CCc1[nH]c(=O)c2oc3cc4ccccc4cc3c2c1C(=O)O`, the TGI in experiment [1], in experiment [2], in [3], in [5], in [6] and in [14] was above 10 µM in each case. Moreover, the TGI in experiment [8], in experiment [9], in experiment [17], in [10], in [12] and in experiment [13] was above 10 µM in each case.
`CCOC(=O)c1nc2ccccc2nc1Nc1ccc(OC)cc1`: the TGI in experiment [1] was above 100 µM; in experiment [2] it was above 100 µM; in experiment [3] it was 73.6 µM; in experiment [4] it was above 100 µM; in [5], above 100 µM; in [6], above 100 µM. Moreover, the TGI in experiment [7] was 30.7 µM; in experiment [14], 54.4 µM; in experiment [8] it was above 100 µM; in experiment [9], 51.3 µM; in experiment [16], above 100 µM; in experiment [17], above 100 µM. The TGI in [10] is above 100 µM; in [18] it was above 100 µM; in experiment [11] it was above 100 µM; in experiment [12] it was 61.5 µM; in experiment [13], above 100 µM.
